In patent US6559160B1, “Compounds and methods for modulating cxcr3 function” (Chemocentryx, Inc., priority 1999, dated 2003):

biological target: T1, CXCR3 (Homo sapiens, UniProt P49682); test: CXCR3 binding assay: inhibition of 125I-IP-10 binding to CXCR3-expressing cells; conditions: concentration required to reduce binding of labeled IP-10 to the receptor by 50%, approx. 3 hours at 4° C.
T1 construct: CXCR3-expressing cells were prepared according to standard methods and used in most assays
T1 sequence (P49682 1-368): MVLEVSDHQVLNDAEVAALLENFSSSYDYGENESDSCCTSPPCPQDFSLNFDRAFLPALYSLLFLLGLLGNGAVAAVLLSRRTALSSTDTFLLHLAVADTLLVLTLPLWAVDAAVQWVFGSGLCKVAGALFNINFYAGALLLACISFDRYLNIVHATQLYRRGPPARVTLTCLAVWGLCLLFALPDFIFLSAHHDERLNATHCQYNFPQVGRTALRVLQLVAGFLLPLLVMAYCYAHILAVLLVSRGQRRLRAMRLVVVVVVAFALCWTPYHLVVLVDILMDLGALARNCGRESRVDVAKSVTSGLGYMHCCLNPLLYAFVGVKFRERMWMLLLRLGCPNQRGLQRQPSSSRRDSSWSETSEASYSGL
Method: Source plates of chemical libraries were obtained from commercial vendors and contained individual compounds at 5 mg/mL in DMSO, or in some instances, at 1 mg/mL. From these, multiple compound plates containing 10 compounds in each well were made, and these were diluted in 20% DMSO to a concentration of 50 μg/mL (10 μg/mL for those beginning at 1 mg/mL). An aliquot of 20 μL of each mixture was put into the test plates, which were stored frozen until use.
CXCR3-expressing cells were prepared according to standard methods and used in most assays. The cells were cultured in IMDM-5% FBS, and harvested when the concentration was between 0.5-1.0×10^6 cells/mL. The cells were centrifuged and resuspended in assay buffer (20 mM HEPES, 80 mM NaCl, 1 mM CaCl2, 5 mM MgCl2, and with 0.2% bovine serum albumin, pH 7.1) to a concentration of 5.6×10^6 cells/mL. Using a Multi-Probe automated system, 0.09 mL of cells was added to each well of the assay test plates containing the compounds, followed by 0.09 mL of ^125I-Ip-10 (from New England Nuclear) diluted in assay buffer (final concentration ˜25-100 pM, with ˜50,000 cpm per well). The final concentration of the compounds was 1-5 μg/mL each. The plates were sealed and incubated for approximately 3 hours at 4° C. on a shaker platform. (In some experiments radiolabeled MIG was used.) The assay plates were harvested using Packard filter plates, pre-soaked in PEI solution, on the vacuum harvest apparatus. Scintillation fluid (35 μL) was added to each of the wells, the plates were sealed and counted in a Top Count scintillation counter. Control wells contained either diluent only (for total counts) or excess IP-10 (1 μg/mL, for non-specific binding) and were used to calculate the percent of total inhibition for each set of compounds. Further tests on individual compounds were carried out in the same manner. IC50 values are those concentrations required to reduce the binding of labeled IP-10 to the receptor by 50%.
The binding of IP-10 or MIG to CXCR3 was first optimized by testing various pH and salt concentrations for their effect in a homologous competition assay. Maximum binding of radiolabeled MIG takes place under low salt (80 mM) conditions, as compared to normal salt (140 mM), while there is no difference between pH 7.1 and 7.4.

IC50 [nM] | SMILES
> 5000 | CCCCCC(=O)N(CCN(C)C)C(C)c1nc2ccccc2c(=O)n1-c1ccc(F)cc1 (stereo not shown) [Compound 1.1]
≤ 800 | CCCCCCCCC(=O)N(CCN(C)C)C(C)c1nc2ccccc2c(=O)n1-c1ccc(Cl)cc1 (stereo not shown) [Compound 1.10]
> 5000 | CCCCCCCCC(=O)N(CCN(C)C)C(C)c1nc2ccccc2c(=O)n1-c1ccc(C)cc1 (stereo not shown) [Compound 1.7]
≤ 800 | CCCCCCCCCCCCCC(=O)N(CCN(C)C)C(C)c1nc2ccccc2c(=O)n1-c1ccc(F)cc1 (stereo not shown) [Compound 1.14]
≤ 800 | CCCCCCCCCCCCCC(=O)N(CCN(C)C)C(C)c1nc2ccccc2c(=O)n1-c1ccc(OC)cc1 (stereo not shown) [Compound 1.15]
800 to 5000 | CCCCCCCC(=O)N(CCN(C)C)C(C)c1nc2ccccc2c(=O)n1-c1ccc(Br)cc1 (stereo not shown) [Compound 1.4]
800 to 5000 | CCCCCCCC(=O)N(CCN(C)C)C(C)c1nc2ccccc2c(=O)n1-c1ccc(F)cc1 (stereo not shown) [Compound 1.6]
800 to 5000 | CCCCCCC(=O)N(CCN(C)C)C(C)c1nc2ccccc2c(=O)n1-c1ccc(OC)cc1 (stereo not shown) [Compound 1.3]
> 5000 | CCCCCCC(=O)N(CCN(C)C)C(C)c1nc2ccccc2c(=O)n1-c1ccc(F)cc1 (stereo not shown) [Compound 1.2]
800 to 5000 | CCCCCCCCCCCC(=O)N(CCN(C)C)C(C)c1nc2ccccc2c(=O)n1-c1ccc(Cl)cc1 (stereo not shown) [Compound 1.13]
800 to 5000 | CCCCCCCC(=O)N(CCN(C)C)C(C)c1nc2ccccc2c(=O)n1-c1ccc(OC)cc1 (stereo not shown) [Compound 1.5]
≤ 800 | CCCCCCCCC(=O)N(CCN(C)C)C(C)c1nc2ccccc2c(=O)n1-c1ccc(OC)cc1 (stereo not shown) [Compound 1.9]
> 5000 | CCCCCCCCCC(=O)N(CCN(C)C)C(C)c1nc2ccccc2c(=O)n1-c1ccccc1 (stereo not shown) [Compound 1.12]
≤ 800 | CCCCCCCCCC(=O)N(CCN(C)C)C(C)c1nc2ccccc2c(=O)n1-c1ccc(F)cc1 (stereo not shown) [Compound 1.11]

test system: 5 other chemokine receptors on activated lymphocytes; test: Signalling (calcium mobilization) by other chemokines on activated lymphocytes; type: cell-based, human; conditions: not given
Method: Calcium mobilization assays were performed by labeling human peripheral blood lymphocytes (cultured in 10 ng/mL IL-2 for at least 12 days) with INDO-1 dye (45 min at room temperature), washing with PBS, and resuspending into flux buffer (HBSS with 1% fetal bovine serum). For each test, 1×10^6 cells were incubated at 37° C. in the cuvette of a PTI spectrometer, and the ratio of 400/490 nm emission was plotted over time (typically 2-3 minutes), with compounds added at 5 seconds, followed by IP-10 or other chemokines.

SMILES | interference with signalling by other chemokines
CCCCCCCCCC(=O)N(CCN(C)C)C(C)c1nc2ccccc2c(=O)n1-c1ccc(F)cc1 (stereo not shown) [Compound 1.11] | did not interfere with signalling by those chemokines

test system: not given; test: not given; conditions: not given

melting point [°C] | SMILES
122.9 | CCCCCCCCCC(=O)N(CCN(C)C)C(C)c1nc2ccc(Cl)cc2c(=O)n1-c1ccc(F)cc1 (stereo not shown) [Compound 4.5]
106.7 | CCCCCCCCCC(=O)N(CCN(C)C)C(C)c1nc2c(OC)c(OC)c(OC)cc2c(=O)n1-c1ccc(F)cc1 (stereo not shown) [Compound 4.7]
121 | CCCCCCCCCC(=O)N(CCN(C)C)C(C)c1nc2ccc(C)cc2c(=O)n1-c1ccc(F)cc1 (stereo not shown) [Compound 4.4]
124.2 | CCCCCCCCCC(=O)N(CCN(C)C)C(C)c1nc2ccc(OC)cc2c(=O)n1-c1ccc(OC)cc1 (stereo not shown) [Compound 4.1]
